The values that follow come from US9771560B2, “High-throughput image-based chemical screening in zebrafish blastomere cell culture” (CHILDREN'S MEDICAL CENTER CORPORATION, priority 2012, dated 2017).

“Also recorded” adds a separate entry of the source. Where a name gives a salt, the structure may show the parent alone.

One data set deals with zebrafish embryos. Description: Whole-mount in situ hybridization with myoD riboprobe in chemical-treated zebrafish embryos. The format is in vivo. Details: key to myoD expression: Level 1: decreased myoD staining at different levels, which are indicated in FIG. 9A; Level 2: decreased myoD staining at different levels, which are indicated in FIG. 9A; Level 3: decreased myoD staining at different levels, which are indicated in FIG. 9A; Level 4: decreased myoD staining at different levels, which are indicated in FIG. 9A. Particulars: for myoD expression: embryos treated at the sphere stage, assayed at the 6-somite stage, CHB library chemicals diluted 300-fold, compared with DMSO; for perturbation of muscle development in vivo (myoD riboprobe): treated at the sphere stage, 6-somite stage, diluted 300-fold. Here is the method: FIGS. 9A-9C show the chemical genetics screens to identify modifiers of skeletal muscle development (related to FIG. 2) FIG. 9A, Embryos were treated with hits at the sphere stage. Once the control embryos reached the 6-somite stage, they were collected for whole-mount in situ hybridization with the myoD riboprobe. […] Flat mounted embryos stained with the myoD riboprobe at the 6-somite stage are shown with anterior to the left. Embryos were treated with (±)-6-Chloro-PB hydrobromide, LY-294002, 1-ACYL-PAF, or ATRA. All chemicals were from the CHB library and were diluted 300-fold. The level of myoD reduction was determined by comparing the intensity of myoD expression in these embryos with that in control embryos treated with DMSO. FIG. 9B, myf5-GFP; mylz2-mCherry embryos were collected at the oblong stage and disassociated. The resulting blastomere cells were aliquoted into a 96-well plate with pre-added chemicals. The culture medium contained 10 ng/ml bFGF to promote muscle development. Cells were treated with 50 μM tyrphostin AG 879, 50 μM tyrphostin AG 808, 50 μM tyrphostin AG 555, 50 μM PD 98059, 10 μM U0126, 10 μM LY-294002, 10 μM wortmannin, or 20 μM rapamycin. Cells were imaged after 2 days by the Celigo cytometer for GFP, mCherry, and bright-field signals. FIG. 9C, 1-cell-stage myf5-GFP; mylz2-mCherry embryos were injected with 250 pg fgf8-MO and 250 pg fgf24-MO and rescued by adding […] at the dome stage.
Whole mount in situ hybridizations were performed as previously described (Belting et al., 2001).

Data set [1] deals with zebrafish blastomere cells. Description: High-throughput image-based chemical screen in myf5-GFP; mylz2-mCherry zebrafish blastomere cell culture with bFGF. The note with it: medium supplemented with bFGF, 384-well, Celigo cytometer. The source says: (§1) FIGS. 2A-2C show the chemical genetic screens to identify modifiers of skeletal muscle development. FIG. 2A is a schematic of a high-throughput image-based chemical screening assay. Approximately 800 myf5-GFP; mylz2-mCherry double transgenic embryos were collected and disassociated at the oblong stage. The resulting blastomere cells were aliquoted into four 384-well plates with pre-added chemicals. We performed duplicates for each chemical to mitigate false positives. After 2 days, the 384-well plates were imaged using a Celigo cytometer. For each well, an image for each signal channel was captured. GFP and mCherry signals were determined by the Celigo cytometer's built-in software and confirmed by eye. […] Most of the hits could be grouped into three categories. […] The phenotype is presumptively due to inhibition of differentiation of muscle progenitors into mature muscle. […] This phenotype is presumptively due to the blocking of muscle progenitor commitment. […] Scale bars represent 250 μM. […] Scale bars represent 250 μM.
Disassociated blastomere cells were grown in zESC medium, which is composed of 70% LDF medium and 30% RTS34st-conditioned medium. The LDF medium contains 50% Leibowitz's L-15 (Invitrogen), 35% DMEM (Invitrogen), and 15% Ham's F-12 (Invitrogen), supplemented with 0.18 g/l sodium bicarbonate, 15 mM HEPES (Invitrogen), 1% L-Glutamine (Invitrogen), 10 μg/ml ciprofloxacin (Sigma-Aldrich), 100 μg/ml piperacillin (Sigma-Aldrich), 10 μg/ml amphotericin B (Sigma-Aldrich), 10 nM sodium selenite (Sigma-Aldrich), 1% N2 (Invitrogen), and 2% B27 (Invitrogen). The RTS34st conditioned medium was prepared by incubating fresh medium (Leibowitz's L-15 plus 15% FBS) on a confluent culture of RTS34st cells for 3 days.
(§2) Four 384-well plates were coated with 0.1% gelatin. Chemicals from the CHB library were diluted 150 times with zESC medium containing 1 ng/ml bFGF and were aliquoted 30 μl per well. Males and females of the myf5-GFP; mylz2-mCherry transgenic line were set up overnight and kept separated until morning when they were mixed for mate. Approximately 800 oblong-stage embryos were washed three times with E3 embryo water and were treated with pronase to remove chorions. Dechorionated embryos were washed with E3 embryo water three times and collected into a 50 ml falcon tube with 25 ml zESC medium containing 1 ng/ml bFGF. Embryos were disassociated by shaking approximately 20 times and were filtered through a 70 μm nylon mesh filter. The resulting single cells were diluted to 60 ml with zESC medium containing 1 ng/ml bFGF and aliquoted 30 μl per well into the four 384-well plates with pre-added chemicals. The cells were cultured in a 28-degree incubator without CO2. Cells were imaged by a Celigo cytometer (Cyntellect) under channels of GFP, mCherry, and transmitted light. The images were analyzed by the built-in software and confirmed eye.
To enable a higher throughput analysis of candidate modifiers of skeletal myogenesis, the embryo culture system was adapted to a semi-automated chemical screening platform. myf5-GFP; mylz2-mCherry embryos were collected from double transgenic parents and disassociated at the oblong stage. […] After one day, the cells were automatically imaged and analyzed using a Celigo cytometer for GFP, mCherry, and bright-field signals, and image analysis was confirmed by visual inspection (FIG. 2A).

The subject of data set [2] is zebrafish blastomere cells. Description: Sensitized chemical screen in zebrafish blastomere cell culture in the absence of bFGF. It is filed as cell-based.
Description: as §1, §2
The strong muscle promoting effect of bFGF made it difficult to identify enhancers of skeletal muscle development in our original system. Only one out of 2,400 chemicals was identified to promote muscle development. To sensitize the system for identifying enhancers of skeletal muscle development, we repeated the screen in the absence of bFGF. […] Among the six hits were three GSKβ inhibitor (kenpaullone, SB415286, and SB216763), two calpain inhibitors (E-64-D and MDL28170) and one cAMP activator forskolin.

The test system of data set [3] is human iPSCs (00409, 05400, and BJ).
Description: Cells were differentiated by generating EBs in suspension culture 7 days and then transferred to matrigel-coated plates for additional 29 days. During the suspension culture the cells received the differentiation medium STEMDiff Apel medium ([sequence] technologies) supplied with 10 ng/ml bFGF (Invitrogen), 0.5 μM BIO (Santa Cruz Biotechnologies) and 20 μM forskolin (Santa Cruz Biotechnologies). Two-three days after plating EBs, the medium was switched to DMEM complemented with 2% horse serum for the remaining differentiation.
Embryoid bodies (EBs) from BJ, 00409 or 05400 iPSCs were exposed for 7 days to a serum-free differentiation medium containing bFGF (10 ng/ml), BIO (0.5 μM) and forskolin (20 μM) (medium added at day 1, 3 and 5). […] After 7 days, we measured the expression of a panel of markers specific for ectoderm, endoderm or mesoderm to quantify differentiation outcomes.
Data set [4] has as its system zebrafish blastomere cells. Kind of data set: Culture of disassociated myf5-GFP; mylz2-mCherry blastomere cells in zESC medium (validation and pathway inhibitor tests). It is filed as cell-based. On the procedure: FIGS. 1A-1E show the chemical genetic screen to identify modifiers of skeletal muscle development. […] The yolk of the double transgenic embryo is mCherry positive, presumptively due to the maternal deposit of mCherry protein. mylz2-mCherry expression is not observed until 32 hpf. Its expression is first detected in anterior somites and then progressively spreads to posterior somites. […] Images were taken 48 hours after plating. Scale bars represent 250 μM. […] Blastomere cells from myf5-GFP; mylz2-mCherry embryos were cultured with or without bFGF and harvested at 24 hours. Results of bFGF treated cells are normalized to the expression of untreated cells. Error bars represent standard deviation (SD) from the triplicate quantitative RT-PCR reaction. All expressions are normalized to β-actin. […] Blastomere cells from myf5-GFP; mylz2-mCherry embryos were cultured with bFGF and harvested at 24 hours. Different populations were isolated by FACS. Results are normalized to the expression of cells of the double negative population. Error bars represent standard deviation (SD) from the triplicate quantitative RT-PCR reaction. All expressions are normalized to β-actin. […] 0.1% DMSO or 100 nM ATRA was added immediately. Images were taken 48 hours after plating. Scale bars represent 250 μM.
FIGS. 9A-9C show the chemical genetics screens to identify modifiers of skeletal muscle development (related to FIG. 2) FIG. 9A, Embryos were treated with hits at the sphere stage. Once the control embryos reached the 6-somite stage, they were collected for whole-mount in situ hybridization with the myoD riboprobe. […] Flat mounted embryos stained with the myoD riboprobe at the 6-somite stage are shown with anterior to the left. Embryos were treated with (±)-6-Chloro-PB hydrobromide, LY-294002, 1-ACYL-PAF, or ATRA. All chemicals were from the CHB library and were diluted 300-fold. The level of myoD reduction was determined by comparing the intensity of myoD expression in these embryos with that in control embryos treated with DMSO. […]

With `O=c1cc(N2CCOCC2)oc2c(-c3ccccc3)cccc12` [LY-294,002 hydrochloride], the myoD expression entry with zebrafish embryos is reported as “Level 2”.
In the case of `Clc1cnc(Oc2ccc(Oc3ncc(Cl)cc3Cl)cc2)c(Cl)c1` [TCPOBOP], in data set [1], the “change of myf5-GFP and mylz2-mCherry signals (hit category)” value (“change” for short) is reported as “only myf5-GFP expression”.
Turning to `C[C@@H](NC(=O)/C(C#N)=C/c1ccc(O)c(O)c1)c1ccccc1` [Tyrphostin AG 527], the myoD expression entry in the data set with zebrafish embryos is “No Change; also recorded: Level 1”.
The same measure, in the same setting: under `C=C1C(=O)O[C@@H]2C[C@@H](C)[C@@H]3C=CC(=O)[C@@]3(C)[C@@H](O)[C@H]12` [Helenalin] stands “Toxic”; under `NC(=O)c1ccc(-c2nc(-c3ccccn3)c(-c3ccc4c(c3)OCO4)[nH]2)cc1` [SB-431542], “No change”; under `N#C/C(=C\c1c[nH]c2ccccc12)C(=O)c1ccc(O)c(O)c1` [Tyrphosfin AG 808], “Level 1”.
In the case of MDL28170, the “GFP and mCherry signals” value in data set [2] was “increase the GFP and mCherry signals”.
Turning to `CCCNC(=O)[C@H]1O[C@@H]1C(=O)N[C@H](C(=O)N1CCC[C@H]1C(=O)OC)[C@@H](C)CC` [CA-074-Me], the “change” value in data set [1] was “only myf5-GFP expression”.
As for `Cl.Cl.Cl.NCCCCNCCCN` [Spermidine trihydrochloride], the myoD expression result in the data set on zebrafish embryos was “Level 1”.
For `O=C1Nc2cc(Br)ccc2/C1=C1/Nc2ccccc2/C1=N\O` [BIO, 6-Bromoindirubin-3′-oxime], in data set [3], the “toxicity compared with other GSK3β antagonists” value is listed as “lower toxicity”.
As for `CC1=C(/C=C/C(C)=C/C=C/C(C)=C/C(=O)O)C(C)(C)CCC1` [ATRA, all-trans retinoic acid], in the data set on zebrafish embryos, the myoD expression entry is “Level 4” and the “perturbation of muscle development in vivo (myoD riboprobe)” value is “verified to perturb muscle development in vivo”. Further, in data set [4] (zESC medium with bFGF, 100 nM ATRA, images 48 hours after plating), the “skeletal muscle development in vitro” value is recorded as “blocked skeletal muscle development; also recorded: blocks muscle development in vitro”.
In the case of `Cl.Oc1cc2c(c(Cl)c1O)CCNCC2c1ccccc1` (racemic) [(±)-6-Chloro-PB hydrochloride], in the data set on zebrafish embryos, the myoD expression result is “Level 1” and the “perturbation of muscle development in vivo (myoD riboprobe)” value is recorded as “verified to perturb muscle development in vivo”.
`CCCC[N+]1(C)[C@@H]2C[C@@H](OC(=O)[C@H](CO)c3ccccc3)C[C@H]1[C@@H]1O[C@@H]12.[Br-]` (single isomer, unassigned; (-)) [(-)-Scopolamine, n-Butyl-, bromide]: in the data set with zebrafish embryos, the myoD expression entry is “Level 1”.
Same read-out and setting: under `CN(Cc1cnc2nc(N)nc(N)c2n1)c1ccc(C(=O)N[C@@H](CCC(=O)O)C(=O)O)cc1` [Methotrexate] stands “No change”.
As for `Cl.NCCNC(=O)c1ncsc1-c1cccc(F)c1` [Ro 41-1049 hydrochloride], the myoD expression entry in the data set on zebrafish embryos is on record as “Level 4”. Besides, in data set [1], the “change” value is reported as “decreased amount of both fluorescent colors”.
With `CCOC(=O)[C@H]1O[C@@H]1C(=O)N[C@@H](CC(C)C)C(=O)NCCC(C)C` [E-64-D], the “GFP and mCherry signals” value in data set [2] is “increase the GFP and mCherry signals”.
On to basic fibroblast growth factor [bFGF], for which the “GFP and mCherry expression of cultured blastomere cells” value in data set [4] (bFGF added to zESC medium) was “majority of cells became GFP and mCherry double positive”. The “expression of other myogenic genes (myoD, mrf4, myog), quantitative RT-PCR” value in data set [4] (cultured with bFGF, harvested at 24 hours) was “highly expressed”.
Turning to `CO[C@H]1C[C@@H]2CC[C@@H](C)[C@@](O)(O2)C(=O)C(=O)N2CCCC[C@H]2C(=O)O[C@H]([C@H](C)C[C@@H]2CC[C@@H](O)[C@H](OC)C2)CC(=O)[C@H](C)/C=C(\C)[C@@H](O)[C@@H](OC)C(=O)[C@H](C)C[C@H](C)/C=C/C=C/C=C/1C` [Rapamycin], in the data set on zebrafish embryos, the myoD expression result was “Level 2”.
Turning to `CC(C)(C)c1cc(/C=C(\C#N)C(N)=S)cc(C(C)(C)C)c1O` [Tyrphostin AG 879], the myoD expression entry in the data set on zebrafish embryos was “Toxic”. In addition, the “change” value in data set [1] is “decreased amount of both fluorescent colors”.
As for `Cn1cc(C2=C(c3ccc(Cl)cc3Cl)C(=O)NC2=O)c2ccccc21` [SB216763], the “GFP and mCherry signals” value in data set [2] is “increase the GFP and mCherry signals”.
In the case of `COCC(=O)O[C@]1(CCN(C)CCCc2nc3ccccc3[nH]2)CCc2cc(F)ccc2[C@@H]1C(C)C.Cl.Cl` [Miberfradil dihydrochloride], the myoD expression entry with zebrafish embryos is given as “Level 2”.
Regarding `O=C1Cc2c([nH]c3ccc(Br)cc23)-c2ccccc2N1` [kenpaullone, 9-bromopaullone], in data set [2], the “GFP and mCherry signals” value was “increase the GFP and mCherry signals”.
Turning to `O=C1NC(=O)C(c2ccccc2[N+](=O)[O-])=C1Nc1ccc(O)c(Cl)c1` [SB415286], in data set [1], the “change” value was “increased expression of both markers”. In data set [2], the “GFP and mCherry signals” value was “increase the GFP and mCherry signals”.
